Measured values as given in ChEMBL document CHEMBL1255459, “Identification and characterization of CTX-M-producing Shigella isolates in the United States” (2010).
In brackets after ≈: the same amount, converted by molar mass.

Assays:
Type in all cases: functional
Shigella [1] = assay: Antimicrobial activity against Shigella isolate DH-19035 by broth microdilution method
Shigella sonnei [2] = assay: Antimicrobial activity against Shigella sonnei isolate AM22451 by broth microdilution method
Shigella flexneri [3] = assay: Antimicrobial activity against Shigella flexneri isolate AM26336 by broth microdilution method
Shigella [4] = assay: Antimicrobial activity against Shigella isolate DH-20369 by broth microdilution method
Shigella [5] = assay: Antimicrobial activity against Shigella isolate DH-13291 by broth microdilution method
Shigella sonnei [6] = assay: Antimicrobial activity against Shigella sonnei isolate AM22855 by broth microdilution method
Shigella flexneri [7] = assay: Antimicrobial activity against Shigella flexneri isolate AM13291 by broth microdilution method
Shigella [8] = assay: Antimicrobial activity against Shigella isolate DH-22451 by broth microdilution method
Shigella [9] = assay: Antimicrobial activity against Shigella isolate DH-22855 by broth microdilution method
Shigella [10] = assay: Antimicrobial activity against Shigella isolate DH-26336 by broth microdilution method
Shigella sonnei [11] = assay: Antimicrobial activity against Shigella sonnei isolate AM20369 by broth microdilution method
Shigella flexneri [12] = assay: Antimicrobial activity against Shigella flexneri isolate AM19035 by broth microdilution method

MIC (Shigella [1]) | MIC (Shigella sonnei [2]) | MIC (Shigella flexneri [3]) | MIC (Shigella [4]) | MIC (Shigella [5]) | MIC (Shigella sonnei [6]) | MIC (Shigella flexneri [7]) | MIC (Shigella [8]) | MIC (Shigella [9]) | MIC (Shigella [10]) | MIC (Shigella sonnei [11]) | MIC (Shigella flexneri [12]) | SMILES
4 µg/mL (≈ 8.32 µM) | 8 µg/mL (≈ 16.6 µM) | 2 µg/mL (≈ 4.16 µM) | 16 µg/mL (≈ 33.3 µM) | 4 µg/mL (≈ 8.32 µM) | 8 µg/mL (≈ 16.6 µM) | 2 µg/mL (≈ 4.16 µM) | 16 µg/mL (≈ 33.3 µM) | 16 µg/mL (≈ 33.3 µM) | 4 µg/mL (≈ 8.32 µM) | 8 µg/mL (≈ 16.6 µM) | 2 µg/mL (≈ 4.16 µM) | CO/N=C(\C(=O)N[C@@H]1C(=O)N2C(C(=O)[O-])=C(C[N+]3(C)CCCC3)CS[C@H]12)c1csc(N)n1 [CEFEPIME]
64 µg/mL (≈ 141 µM) | 64 µg/mL (≈ 141 µM) | 8 µg/mL (≈ 17.6 µM) | 128 µg/mL (≈ 281 µM) | 32 µg/mL (≈ 70.3 µM) | 64 µg/mL (≈ 141 µM) | 8 µg/mL (≈ 17.6 µM) | 128 µg/mL (≈ 281 µM) | 64 µg/mL (≈ 141 µM) | 64 µg/mL (≈ 141 µM) | 64 µg/mL (≈ 141 µM) | 32 µg/mL (≈ 70.3 µM) | CO/N=C(\C(=O)N[C@@H]1C(=O)N2C(C(=O)O)=C(COC(C)=O)CS[C@H]12)c1csc(N)n1 [CEFOTAXIME]
32 µg/mL (≈ 57.7 µM) | > 64 µg/mL | 16 µg/mL (≈ 28.9 µM) | > 64 µg/mL | 32 µg/mL (≈ 57.7 µM) | 64 µg/mL (≈ 115 µM) | 16 µg/mL (≈ 28.9 µM) | > 64 µg/mL | > 64 µg/mL | 32 µg/mL (≈ 57.7 µM) | 64 µg/mL (≈ 115 µM) | 32 µg/mL (≈ 57.7 µM) | CO/N=C(\C(=O)N[C@@H]1C(=O)N2C(C(=O)O)=C(CSc3nc(=O)c(O)nn3C)CS[C@H]12)c1csc(N)n1 [CEFTRIAXONE]

SMILES | MIC (Shigella [1]) | MIC (Shigella sonnei [2]) | MIC (Shigella flexneri [3]) | MIC (Shigella [4]) | MIC (Shigella [5]) | MIC (Shigella sonnei [6]) | MIC (Shigella flexneri [7]) | MIC (Shigella [8]) | MIC (Shigella [9]) | MIC (Shigella [10]) | MIC (Shigella sonnei [11]) | MIC (Shigella flexneri [12])
CC(C)(O/N=C(\C(=O)N[C@@H]1C(=O)N2C(C(=O)[O-])=C(C[n+]3ccccc3)CS[C@H]12)c1csc(N)n1)C(=O)O [CEFTAZIDIME] | 2 µg/mL (≈ 3.66 µM) | 8 µg/mL (≈ 14.6 µM) | 0.5 µg/mL (≈ 0.915 µM) | 16 µg/mL (≈ 29.3 µM) | 2 µg/mL (≈ 3.66 µM) | 8 µg/mL (≈ 14.6 µM) | 0.5 µg/mL (≈ 0.915 µM) | 32 µg/mL (≈ 58.5 µM) | 16 µg/mL (≈ 29.3 µM) | 4 µg/mL (≈ 7.32 µM) | 8 µg/mL (≈ 14.6 µM) | 0.5 µg/mL (≈ 0.915 µM)
